Entries after “also recorded” stand apart in the source; their conditions may differ. Where two headings read alike, the source gives them in different places. Ends that are not written are not given here.
Experiments:
[1] = Storage stability of monosaccharide solutions (data not shown); type: physicochemical; details: stored at room temperature or at 4° C. dissolved in an aqueous solution
[2] = target: PA-IL (Pseudomonas aeruginosa, UniProt Q05097); test: cell-based; type: cell-based
Procedure: (§1) Experiments were carried out on human nasal conchae, obtained during routine surgery from the ENT Hospital of the University Medical Center Hamburg-Eppendorf, Hamburg, Germany. For the measurement of CBF, small pieces of nasal mucosa were punched out of the nasal conchae by a special biopsy punch (Stiefel Laboratorium GmbH, Offenbach, Germany) (4-6 pieces per nasal conchae) and transferred to Petri dishes (Greiner Bio-One, Kremsmünster, Austria) containing RPMI-1640 and L-Glutamine medium (Gibco, Karlsruhe, Germany) supplemented with 10% fetal calf serum (Gibco, Karlsruhe, Germany), 1% Penicillin-Streptomycin (10 000 U/ml, Gibco, Karlsruhe, Germany) and 0.9% Amphotericin B (250 UG/ml, Gibco, Karlsruhe, Germany) as a fungicide. The specimens were maintained under standard cell culture conditions at 37° C. in 5% CO2 for up to two weeks.
(§2) The aim of this experiment was to compare the efficiency of different sugar solutions and peptides to block PA-IL and PA-IIL binding to cilia in tissue sections and in vitro airway cultures by measuring their ciliary beat frequency (CBF). Actively beating ciliated cells were viewed trough phase-contrast optics of a Leica DM IRB HC inverted microscope (Leica, Bensheim, Germany) placed on a Micro-g vibration isolation table (TMC, Peabody, Mass.). During the experiments, the cultured tissue samples were maintained at a constant temperature (35±0.5° C.) by a thermostatically controlled heated stage. The signals were measured and analysed by a computer system incorporating a special purpose MPV-CBF software (Software-Entwicklung Radmann, Solms, Germany). The CBF was calculated by collecting data from 512 readings (10 s) and by performing Fourier analysis (Mewe et al. 2005). Five of these Fourier transforms taken per nasal conchae piece were measured.
The influence of monosaccharides and several peptides (obtained from Centre for Molecular Neurobiology, Hamburg, Germany) alone and in combination with PA-IL or PA-IIL on CBF was also investigated. The monosaccharides ([…]) were pre-incubated with 10 μg/ml PA-IL and 10 μg/ml PA-IIL, respectively, for 30 min at room temperature, at which they were agitated the for whole time and then added to the medium and the CBF was monitored over a 24 h period. Measurement was carried out after 0, 1, 2, 3, 5, 8, 24 h incubation. Negative controls were maintained in medium with no additions made. Positive controls were maintained in medium with PA-IL or PA-IIL, respectively.
In CBF analysis, the influence of monosaccharides (D-galactose and L(−)-fucose) and the HNK-1 mimetic peptide pHNK-1 alone and in combination with PA-IL on CBF was investigated.

[3] = target: T1, PA-IIL (Pseudomonas aeruginosa, UniProt Q9HYN5); test: cell-based; type: cell-based
T1 sequence (Q9HYN5 entry or part of it): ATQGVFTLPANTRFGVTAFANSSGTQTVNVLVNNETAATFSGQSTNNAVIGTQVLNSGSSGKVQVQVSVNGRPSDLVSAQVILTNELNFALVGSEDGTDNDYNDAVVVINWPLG
Procedure: as §1, §2
(§3) The influence of monosaccharides and several peptides (obtained from Centre for Molecular Neurobiology, Hamburg, Germany) alone and in combination with PA-IL or PA-IIL on CBF was also investigated. The monosaccharides (0.2 M) and peptides (0.968 mM) were pre-incubated with 10 μg/ml PA-IL and 10 μg/ml PA-IIL, respectively, for 30 min at room temperature, at which they were agitated the for whole time and then added to the medium and the CBF was monitored over a 24 h period. Measurement was carried out after 0, 1, 2, 3, 5, 8, 24 h incubation. Negative controls were maintained in medium with no additions made. Positive controls were maintained in medium with PA-IL or PA-IIL, respectively.
For CBF analysis monosaccharides (D-galactose and L(−)-fucose) and peptides were pre-incubated with PA-IIL and the CBF was determined.

[4] = test system: human airway cilia; test: Ciliary beat frequency (CBF) of human nasal mucosa, substances alone without lectin; type: cell-based; details: no lectin, over 24 h; for effect on the ciliary beat frequency (CBF), monosaccharide alone: 0.2 M monosaccharide
Procedure: The influence of monosaccharides and several peptides (obtained from Centre for Molecular Neurobiology, Hamburg, Germany) alone and in combination with PA-IL or PA-IIL on CBF was also investigated. The monosaccharides (0.2 M) and peptides (0.968 mM) were pre-incubated with 10 μg/ml PA-IL and 10 μg/ml PA-IIL, respectively, for 30 min at room temperature, at which they were agitated the for whole time and then added to the medium and the CBF was monitored over a 24 h period. […]

[5] = target: T1, PA-IIL; type: cell-based; details: 0.121-0.484 mM peptide co-incubated with 10 μg/ml PA-IIL, 24 h
[6] = test system: PA-IL and PA-IIL; test: CBF assay: simultaneous application of PA-IL and PA-IIL; type: cell-based, Pseudomonas aeruginosa
Procedure: Experiments were carried out on human nasal conchae, obtained during routine surgery from the ENT Hospital of the University Medical Center Hamburg-Eppendorf, Hamburg, Germany. […]
The aim of this experiment was to compare the efficiency of different sugar solutions and peptides to block PA-IL and PA-IIL binding to cilia in tissue sections and in vitro airway cultures by measuring their ciliary beat frequency (CBF). […] The signals were measured and analysed by a computer system incorporating a special purpose MPV-CBF software (Software-Entwicklung Radmann, Solms, Germany). The CBF was calculated by collecting data from 512 readings (10 s) and by performing Fourier analysis (Mewe et al. 2005). Five of these Fourier transforms taken per nasal conchae piece were measured.
as §3, with “Measurement was carried out after 0, 1, 2, 3, 5, 8, 24 h incubation. Negative controls were maintained in medium with no additions made. Positive controls were maintained in medium with PA-IL or PA-IIL, respectively.” left out

[7] = 0.2 M monosaccharide co-incubated with 10 μg/ml PA-IL, 24 h
[8] = 0.2 M monosaccharide co-incubated with 10 μg/ml PA-IIL, 24 h
[9] = 0.121 mM peptide co-incubated with 10 μg/ml PA-IL, 24 h
[10] = 0.242 mM peptide co-incubated with 10 μg/ml PA-IL, 24 h

PA-IL, sequence (Q05097 whole entry): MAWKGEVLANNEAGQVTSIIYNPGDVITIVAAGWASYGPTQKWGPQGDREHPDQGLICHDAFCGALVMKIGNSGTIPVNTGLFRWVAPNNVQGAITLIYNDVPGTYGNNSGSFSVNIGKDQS

| Molecule | stability and inhibitory potency of the solution on storage [1] | effect on the CBF-decreasing effect of PA-IL [2, 7] | effect on the CBF-decreasing effect of PA-IIL [3, 8] | effect on the ciliary beat frequency (CBF), monosaccharide alone [4] | IC50 [2] [µM] | effect on the CBF-decreasing effect of PA-IL [2] | effect on the CBF-decreasing effect of PA-IL [2, 9] | effect on the CBF-decreasing effect of PA-IL [2, 10] | IC50 [3] [µM] | effect on the CBF-decreasing effect of PA-IIL [3] | effect on the CBF-decreasing effect of PA-IIL [5] | effect on the ciliary beat frequency (CBF), peptide alone ([4]; 0.968 mM peptide) | effect on the decrease of CBF after simultaneous application of PA-IL and PA-IIL [6] | effect on the CBF-decreasing effect of PA-IL ([2]; listed as scrambled version of the peptide pHNK-1) |
| --- | --- | --- | --- | --- | --- | --- | --- | --- | --- | --- | --- | --- | --- | --- |
| O=C[C@H](O)[C@@H](O)[C@@H](O)[C@H](O)CO [D-galactose, reference compound] | not stable and loose their inhibitory potency | reduced the CBF-decreasing effect of the PA lectin; also recorded: could be effectively reduced | no inhibition could be achieved; also recorded: resulted in a decline of the CBF within 24 h; also recorded: did not inhibit | had no effect on the CBF |  |  |  |  |  |  |  |  |  |  |
| FLHTRLFV [pHNK-1] |  |  |  |  | 484 | blocked the CBF-decreasing effect of PA-IL; also recorded: reduced the CBF-decreasing effect of the PA lectin; also recorded: could be reduced | resulted in a continuous decrease of the CBF within 24 h | resulted in a continuous decrease of the CBF within 24 h | 968 | inhibited the CBF-decreasing effect of PA-IIL; also recorded: reduced the CBF-decreasing effect of the PA lectin; also recorded: blocked | resulted in a continuous decrease of the CBF within 24 h | had no effect on the CBF | caused an inhibition of lectin induced suppression of CBF; also recorded: could be inhibited |  |
| C[C@H](O)[C@@H](O)[C@@H](O)[C@H](O)C=O [L(−)-fucose, reference compound] | not stable and loose their inhibitory potency | resulted in a continuous decrease of the CBF within 24 h; also recorded: did not inhibit | could be reduced; also recorded: reduced the CBF-decreasing effect of the PA lectin | had no effect on the CBF |  |  |  |  |  |  |  |  |  |  |
| TVFHFRLL [sHNK-1] |  |  |  |  |  | also reduced the CBF-decreasing effect of PA-IL; also recorded: reduced the CBF-decreasing effect of the PA lectin; also recorded: resulted in a continuous decrease of the CBF within 24 h | resulted in a continuous decrease of the CBF within 24 h | resulted in a continuous decrease of the CBF within 24 h |  | resulted in a continuous decrease of the CBF within 24 h; also recorded: none of the other tested peptides (sHNK-1, pLeX, sLeX) had any consequence; also recorded: had no effect |  |  |  | also reduced the CBF-decreasing effect of PA-IL |

Reference: patent US9056081B2, “Compositions for treating pseudomonas infection” (Universitätsklinikum Hamburg-Eppendorf, priority 2009, dated 2015)
